{"source": "ChEMBL document CHEMBL5241076", "about": "“Natural products and analogs as preventive agents for metabolic syndrome via peroxisome proliferator-activated receptors: An overview” (Eur J Med Chem, 2021)", "key": {"[1]": {"molecular_target": "T1, Peroxisome proliferator-activated receptor gamma (Homo sapiens, UniProt P37231)", "T1 sequence (P37231 whole entry)": "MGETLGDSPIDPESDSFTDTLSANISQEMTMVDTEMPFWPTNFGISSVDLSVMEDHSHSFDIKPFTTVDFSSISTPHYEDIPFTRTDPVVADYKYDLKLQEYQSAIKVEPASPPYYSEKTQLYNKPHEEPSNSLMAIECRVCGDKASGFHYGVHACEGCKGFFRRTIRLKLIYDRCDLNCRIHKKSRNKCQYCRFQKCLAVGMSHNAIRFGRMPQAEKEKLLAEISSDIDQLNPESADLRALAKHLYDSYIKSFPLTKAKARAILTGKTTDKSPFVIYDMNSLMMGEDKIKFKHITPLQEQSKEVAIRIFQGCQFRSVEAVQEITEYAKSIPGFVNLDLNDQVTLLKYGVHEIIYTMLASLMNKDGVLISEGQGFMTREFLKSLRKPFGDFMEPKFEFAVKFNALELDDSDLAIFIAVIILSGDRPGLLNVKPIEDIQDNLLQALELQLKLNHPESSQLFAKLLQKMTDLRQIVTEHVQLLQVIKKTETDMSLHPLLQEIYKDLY", "assay": "Binding affinity to PPARgamma (unknown origin)"}, "[2]": {"assay": "Half life in Syrian hamster at 100 mg/kg, po", "format": "ADME, organism-based, Mesocricetus auratus", "settings": "in vivo"}, "[3]": {"assay": "Cmax in Syrian hamster at 100 mg/kg, po", "format": "ADME, organism-based, Mesocricetus auratus", "set-up": "dose 100 mg/kg, route po", "settings": "in vivo"}, "[4]": {"molecular_target": "T2, Peroxisome proliferator-activated receptor gamma (Homo sapiens) (UniProt P37231)", "T2 sequence (whole entry)": "T1 sequence (P37231 whole entry)", "assay": "Agonist activity at PPARgamma (unknown origin) at 0.1 to 25 uM relative to control", "settings": "dose 0.1-25 µM"}, "[5]": {"molecular_target": "T3, Peroxisome proliferator-activated receptor alpha (Homo sapiens) (UniProt Q07869)", "T3 sequence (whole entry)": "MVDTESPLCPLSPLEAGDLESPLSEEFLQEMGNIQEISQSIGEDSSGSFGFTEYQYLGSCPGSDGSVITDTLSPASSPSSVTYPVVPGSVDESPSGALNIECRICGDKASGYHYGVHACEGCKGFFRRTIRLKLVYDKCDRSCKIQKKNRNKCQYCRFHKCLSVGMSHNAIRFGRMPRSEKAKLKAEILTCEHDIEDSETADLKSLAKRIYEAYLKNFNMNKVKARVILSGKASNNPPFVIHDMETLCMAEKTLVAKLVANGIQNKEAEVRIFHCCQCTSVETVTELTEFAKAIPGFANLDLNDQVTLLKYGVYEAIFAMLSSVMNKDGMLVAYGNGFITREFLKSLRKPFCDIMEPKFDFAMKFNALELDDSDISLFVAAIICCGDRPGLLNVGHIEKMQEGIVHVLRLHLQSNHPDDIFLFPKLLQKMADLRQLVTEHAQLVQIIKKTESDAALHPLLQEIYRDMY", "assay": "Agonist activity at PPARalpha (unknown origin) at 240 uM relative to control"}, "[6]": {"molecular_target": "T2, Peroxisome proliferator-activated receptor gamma (Homo sapiens)", "assay": "Agonist activity at PPARgamma (unknown origin) at 80 uM relative to control", "settings": "filed as agonist"}, "[7]": {"molecular_target": "T2, Peroxisome proliferator-activated receptor gamma (Homo sapiens)", "assay": "Partial agonist activity at PPARgamma (unknown origin) relative to control"}, "[8]": {"assay": "Half life in mouse at 100 mg/kg, po", "format": "ADME, organism-based", "settings": "in vivo"}, "[9]": {"assay": "Cmax in mouse at 100 mg/kg, PO", "format": "ADME, organism-based", "set-up": "dose 100 mg/kg, route po", "settings": "in vivo"}, "[10]": {"molecular_target": "T4, Peroxisome proliferator-activated receptor alpha (Homo sapiens, UniProt Q07869)", "T4 sequence (Q07869 whole entry)": "T3 sequence (whole entry)", "assay": "Binding affinity to PPARalpha (unknown origin)"}, "[11]": {"molecular_target": "T3, Peroxisome proliferator-activated receptor alpha (Homo sapiens)", "assay": "Agonist activity at PPARalpha (unknown origin) relative to control", "settings": "filed as agonist"}, "[12]": {"molecular_target": "T5, Peroxisome proliferator-activated receptor delta (Homo sapiens, UniProt Q03181)", "T5 sequence (Q03181 whole entry)": "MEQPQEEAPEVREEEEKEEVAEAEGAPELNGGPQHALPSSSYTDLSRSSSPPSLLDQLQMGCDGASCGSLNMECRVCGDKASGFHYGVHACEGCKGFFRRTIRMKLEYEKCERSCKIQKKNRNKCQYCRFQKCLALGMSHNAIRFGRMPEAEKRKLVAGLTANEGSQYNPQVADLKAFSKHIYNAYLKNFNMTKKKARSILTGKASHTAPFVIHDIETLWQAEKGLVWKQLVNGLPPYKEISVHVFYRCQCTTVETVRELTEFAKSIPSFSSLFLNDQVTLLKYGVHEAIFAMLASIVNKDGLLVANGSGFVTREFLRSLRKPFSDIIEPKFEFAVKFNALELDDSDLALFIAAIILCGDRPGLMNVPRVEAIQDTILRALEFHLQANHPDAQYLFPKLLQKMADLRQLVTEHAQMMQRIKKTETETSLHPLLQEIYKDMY", "assay": "Agonist activity at PPARdelta (unknown origin)"}, "[13]": {"molecular_target": "T4, Peroxisome proliferator-activated receptor alpha", "assay": "Agonist activity at PPARalpha (unknown origin)"}, "[14]": {"molecular_target": "T3, Peroxisome proliferator-activated receptor alpha (Homo sapiens)", "assay": "Agonist activity at PPARalpha (unknown origin) at 20 uM relative to control", "settings": "filed as agonist"}, "[15]": {"molecular_target": "T6, Peroxisome proliferator-activated receptor delta (Homo sapiens) (UniProt Q03181)", "T6 sequence (whole entry)": "T5 sequence (Q03181 whole entry)", "assay": "Agonist activity at PPARdelta (unknown origin) at 20 uM relative to control", "settings": "filed as agonist"}}}
{"smiles": "CC(C)=CCC[C@@](C)(O)[C@H]1CC[C@]2(C)[C@@H]1[C@H](O)C[C@@H]1[C@@]3(C)CC[C@H](O)C(C)(C)[C@@H]3[C@@H](O)C[C@]12C", "values": [{"measurement": "Ki", "setting": "[1]", "result": 54.2, "unit": "µM"}]}
{"smiles": "COc1cc(/C=C/c2cc(/C=C/c3ccc(O)c(OC)c3)n(-c3ccc(Cl)c(Cl)c3)n2)ccc1O", "values": [{"measurement": "half-life", "setting": "[2]", "result": 2.8, "unit": "h"}, {"measurement": "Cmax", "setting": "[3]", "result": 1390, "unit": "ng/mL"}]}
{"smiles": "CCCCCc1cc2c(c(O)c1C(=O)O)[C@@H]1C=C(C)CC[C@H]1C(C)(C)O2", "values": [{"measurement": "Activity", "setting": "[4]", "result": 17, "unit": "%"}]}
{"smiles": "O=C1C[C@@H](c2ccc(O)cc2)Oc2cc(O)cc(O)c21", "values": [{"measurement": "Activity", "setting": "[5]", "result": 24, "unit": "%"}, {"measurement": "Activity", "setting": "[6]", "result": 57, "unit": "%"}]}
{"smiles": "O=c1c(O)c(-c2ccc(O)c(O)c2)oc2cc(O)cc(O)c12", "values": [{"measurement": "Activity", "setting": "[7]", "result": 20, "unit": "%"}]}
{"smiles": "COc1cc(CCc2ccccc2)c(C(=O)O)c(O)c1CC=C(C)C", "note": "[AMORFRUTIN A]", "values": [{"measurement": "half-life", "setting": "[8]", "result": 2, "unit": "h"}, {"measurement": "Cmax", "setting": "[9]", "result": 42400, "unit": "ng/mL"}]}
{"smiles": "COc1ccc2cc3[n+](cc2c1OC)CCc1cc2c(cc1-3)OCO2", "note": "[BERBERINE]", "values": [{"measurement": "Ki", "setting": "[10]", "result": 0.73, "unit": "µM"}, {"measurement": "Activity", "setting": "[11]", "result": 102, "unit": "%"}, {"measurement": "EC50", "setting": "[12]", "result": 14, "unit": "µM"}, {"measurement": "EC50", "setting": "[13]", "result": 0.58, "unit": "µM"}]}
{"smiles": "C=C1CC/C=C(\\C)CC[C@@H]2[C@@H]1CC2(C)C", "note": "[BETA-CARYOPHYLLENE]", "values": [{"measurement": "EC50", "setting": "[13]", "result": 9.58, "unit": "µM"}]}
{"smiles": "COc1cc(/C=C/C(=O)CC(=O)/C=C/c2ccc(O)c(OC)c2)ccc1O", "note": "[CURCUMIN]", "values": [{"measurement": "Cmax", "setting": "[3]", "result": 2.35, "unit": "ng/mL"}]}
{"smiles": "O=c1c(O)c(-c2ccc(O)cc2)oc2cc(O)cc(O)c12", "note": "[KAEMPFEROL]", "values": [{"measurement": "Activity", "setting": "[7]; filed as partial agonist", "result": 45, "unit": "%"}, {"measurement": "EC50", "setting": "[12]", "result": 341, "unit": "µM"}, {"measurement": "Activity", "setting": "[14]", "result": 433, "unit": "%"}, {"measurement": "Activity", "setting": "[15]", "result": 155, "unit": "%"}, {"measurement": "EC50", "setting": "[13]", "result": 15.5, "unit": "µM"}]}
{"smiles": "C=CCc1ccc(O)c(-c2cc(CC=C)ccc2O)c1", "note": "[MAGNOLOL]", "values": [{"measurement": "EC50", "setting": "[12]", "result": 11.4, "unit": "µM"}]}
{"smiles": "Cc1coc2c1C(=O)C(=O)c1c-2ccc2c1CCCC2(C)C", "note": "[TANSHINONE IIA]", "values": [{"measurement": "Ki", "setting": "[1]", "result": 2.56, "unit": "µM"}]}
